Assay results from patent publication US20230295213A1, “CD73 INHIBITORS AND PHARMACEUTICAL USES THEREOF” (RISEN (SUZHOU) PHARMA TECH CO., LTD., priority 2018, published 2023).

Target: CD73 (Homo sapiens (Human), UniProt P21589)
Assay: CD73 enzyme inhibition assay (Malachite Green Phosphate Detection Kit)
Assay type: biochemical
Details: CD73 protein 0.5 μg/mL (2x), Tris-HCl pH 7.3, OD 620 nm; read-out: Potency (IC50 class), inhibitory activity in CD73 enzyme assay
Protocol: To evaluate the inhibitory effect of selected compounds on CD73, Malachite Green Phosphate Detection Kit (R&D, Cat #DY996) was used. Briefly, compounds were dissolved and diluted to the desired concentration using phosphate-free buffer (Tris-HCl, pH 7.3). 25 μL of the compound solution was added to an equal volume of CD73 protein solution (2× concentration, 0.5 μg/mL, Novoprotein, Cat #C446), followed by a 5-minute incubation at room temperature. 10 μL of Malachite Green Reagent A was added to each well, mixed thoroughly and incubated for 10 minutes at room temperature. 10 μL of Malachite Green Reagent B was then added to each well, mixed thoroughly and incubated for 20 minutes at room temperature. Finally, the optical density of each well was determined using a microplate reader set to 620 nm.

Sequence of CD73 (P21589 27-574): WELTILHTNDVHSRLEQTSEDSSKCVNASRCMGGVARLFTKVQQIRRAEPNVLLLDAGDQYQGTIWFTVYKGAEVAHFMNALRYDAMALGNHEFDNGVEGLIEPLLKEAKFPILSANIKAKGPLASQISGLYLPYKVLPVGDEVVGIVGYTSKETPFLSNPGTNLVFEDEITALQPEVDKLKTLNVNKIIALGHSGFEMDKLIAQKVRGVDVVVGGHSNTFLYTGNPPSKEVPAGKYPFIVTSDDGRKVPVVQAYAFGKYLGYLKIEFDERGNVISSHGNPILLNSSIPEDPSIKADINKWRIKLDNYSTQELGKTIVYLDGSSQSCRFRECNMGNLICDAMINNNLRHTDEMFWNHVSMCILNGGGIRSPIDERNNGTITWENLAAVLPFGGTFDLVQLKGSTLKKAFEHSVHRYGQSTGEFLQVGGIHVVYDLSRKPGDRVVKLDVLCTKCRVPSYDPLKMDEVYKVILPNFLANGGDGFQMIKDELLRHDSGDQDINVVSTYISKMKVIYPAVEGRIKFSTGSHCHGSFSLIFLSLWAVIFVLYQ

Structure (SMILES)	IC50 [nM]
CC1(C)OC2C(O1)[C@@H](COP(=O)(O)CP(=O)(O)O)O[C@H]2n1cnc2c(NCc3ccccc3)nc(Cl)nc21 (stereo partly drawn) [Compound 2]	10 to 100
CCCCCOC(=O)Nc1nc(Cl)nc2c1ncn2[C@@H]1O[C@H](COP(=O)(O)CP(=O)(O)O)C(O)C1O (stereo partly drawn) [Compound 8]	10 to 100
O=P(O)(O)CP(=O)(O)OC[C@H]1O[C@@H](n2cnc3c(-n4c5ccccc5c5ccccc54)nc(Cl)nc32)C(O)C1O (stereo partly drawn) [Compound 10]	10 to 100
CCCCC/C=C\C/C=C\CCCCCCCC(=O)Nc1nc(Cl)nc2c1ncn2[C@@H]1O[C@H](COP(=O)(O)CP(=O)(O)O)C(O)C1O (stereo partly drawn) [Compound 11]	10 to 100
O=P(O)(O)CP(=O)(O)OC[C@H]1O[C@@H](n2cnc3c(Nc4ccc5ccccc5c4)nc(Cl)nc32)C(O)C1O (stereo partly drawn) [Compound 12]	10 to 100
O=C(CC12CC3CC(CC(C3)C1)C2)Nc1nc(Cl)nc2c1ncn2[C@@H]1O[C@H](COP(=O)(O)CP(=O)(O)O)C(O)[C@@H]1O (stereo partly drawn) [Compound 16]	10 to 100
CCCCCCCCCCCCNC(=O)Nc1nc(Cl)nc2c1ncn2[C@@H]1O[C@H](COP(=O)(O)CP(=O)(O)O)C(O)C1O (stereo partly drawn) [Compound 18]	10 to 100
CCCCCCCCCCCCN(CCCCCCCCCCCC)c1nc(Cl)nc2c1ncn2[C@@H]1O[C@H](COP(=O)(O)CP(=O)(O)O)C(O)[C@@H]1O (stereo partly drawn) [Compound 19]	> 100
O=P(O)(O)CP(=O)(O)OC[C@H]1O[C@@H](n2cnc3c(Nc4ccc5cc6ccccc6cc5c4)nc(Cl)nc32)C(O)C1O (stereo partly drawn) [Compound 20]	10 to 100
O=P(O)(O)CP(=O)(O)OC[C@H]1O[C@@H](n2cnc3c(NC45CC6CC(CC(C6)C4)C5)nc(Cl)nc32)[C@@H](O)C1O (stereo partly drawn) [Compound 22]	< 10
CC1(C)[C@@H]2CC[C@@]1(C)C(OC(=O)Cc1nc(Cl)nc3c1ncn3[C@@H]1O[C@H](COP(=O)(O)CP(=O)(O)O)C(O)C1O)C2 (stereo partly drawn) [Compound 23]	10 to 100
O=P(O)(O)CP(=O)(O)OC[C@H]1O[C@@H](n2cnc3c(N4CCC5(CCCCC5)C4)nc(Cl)nc32)[C@@H](O)C1O (stereo partly drawn) [Compound 31]	< 10

More lines, now with the values ahead:

IC50 [nM]	Structure (SMILES)
< 10	O=P(O)(O)CP(=O)(O)OC[C@H]1O[C@@H](n2cnc3c(NCc4ccccc4)nc(Cl)nc32)[C@@H](O)C1O (stereo partly drawn) [Compound 1]
< 10	O=P(O)(O)CP(=O)(O)OC[C@H]1O[C@@H](n2cnc3c(NCc4cccc5ccccc45)nc(Cl)nc32)[C@@H](O)C1O (stereo partly drawn) [Compound 6]
< 10	O=P(O)(O)CP(=O)(O)OC[C@H]1O[C@@H](n2cnc3c(NCc4ccc5ccccc5c4)nc(Cl)nc32)[C@@H](O)C1O (stereo partly drawn) [Compound 7]
< 10	C[C@]12C[C@@H]3C[C@](C)(C1)C[C@@](Nc1nc(Cl)nc4c1ncn4[C@@H]1O[C@H](COP(=O)(O)CP(=O)(O)O)C(O)[C@@H]1O)(C3)C2 (stereo partly drawn) [Compound 9]
< 10	CCCCCCCCCCCCOC(=O)Nc1nc(Cl)nc2c1ncn2[C@@H]1O[C@H](COP(=O)(O)CP(=O)(O)O)C(O)[C@@H]1O (stereo partly drawn) [Compound 15]
< 10	O=P(O)(O)CP(=O)(O)OC[C@H]1O[C@@H](n2cnc3c(NC4C5CC6CC(C5)CC4C6)nc(Cl)nc32)[C@@H](O)C1O (stereo partly drawn) [Compound 17]
